Data reported in publication PMC12016938, “A small molecule PKCε inhibitor reduces hyperalgesia induced by paclitaxel or opioid withdrawal” (JCI Insight, 2025).
Read-outs that look alike come from different tables or passages of the source.

Key:
PKCγ = target: T1, PKCγ (Homo sapiens, UniProt P05129); experiment: Lance-FRET kinase assay, PKCγ; type: biochemical; conditions: Figure 1B
T1 construct: purchased SignalChem Biotech
Experimental: Kinase assays. CP612 was assayed against His-AVI–tagged human PKCε (1 nM) produced in Sf9 cells, and ROCK1 (Carna Biosciences; 5 nM) using the Lance-FRET kinase assay system (PerkinElmer Revvity). Other human recombinant PKCs (SignalChem Biotech) were assayed in triplicate at the following concentrations: PKCβII 1.6 nM, PKCγ 500 pM, PKCδ 5 nM, PKCθ 500 pM, and PKCζ 500 pM. PKCs were incubated in a 15 μL reaction volume with kinase buffer (20 mM Tris-HCL [pH 7.4], 10 mM MgCl2, 0.25 mM EGTA, 0.1 mg/mL BSA, and 0.15% Triton X-100), 50 nM ULight-labeled CREBtide […] (PerkinElmer, TRF0107, Revvity), and test compound. […] After incubation at 27°C for another 60 minutes, phosphorylation was detected using a FlexStation 3 Microplate Reader (Molecular Devices) in LANCE TR-FRET mode (excitation = 340 nm, emission = 665 nm) and expressed as relative fluorescence units (RFU). The percentage of inhibition was calculated as: (signal without test compound − signal with test compound)/(signal without test compound − signal without ATP) × 100. […]
Kinase assays used 11-point concentration-response curves and results were analyzed by nonlinear regression using Prism 9 (GraphPad Software) to determine IC50 values. […] Scores for pain threshold, conditioned place preference, and self-administration were analyzed by ANOVA using the following factors. […]

[1] = LogD determination (PBS/n-octanol); type: physicochemical; conditions: 1:1 0.1M PBS/n-octanol, mean of duplicate, 37°C
Experimental: LogD determination. Test compounds were diluted by adding 12 μL of 1 mM DMSO stocks to 1,188 μL of 1:1 0.1M PBS/n-octanol in duplicate. Samples were vortexed, shaken at 600 rpm for 3 hours at 37°C. Samples (100 μL) of each phase layer were extracted in 3 volumes of acetonitrile for 15 minutes, centrifuged at 10,000g for 10 minutes, and then analyzed by LC-MS. The ratio of concentrations measured in the organic and aqueous phases was log10 transformed to determine the logD.

PKCε = target: T2, PKCε (Homo sapiens, UniProt Q02156); experiment: Lance-FRET kinase assay, PKCε; type: biochemical; set-up: His; AVI; made in house; host or cells: Sf9 cells
T2 sequence (Q02156 1-737): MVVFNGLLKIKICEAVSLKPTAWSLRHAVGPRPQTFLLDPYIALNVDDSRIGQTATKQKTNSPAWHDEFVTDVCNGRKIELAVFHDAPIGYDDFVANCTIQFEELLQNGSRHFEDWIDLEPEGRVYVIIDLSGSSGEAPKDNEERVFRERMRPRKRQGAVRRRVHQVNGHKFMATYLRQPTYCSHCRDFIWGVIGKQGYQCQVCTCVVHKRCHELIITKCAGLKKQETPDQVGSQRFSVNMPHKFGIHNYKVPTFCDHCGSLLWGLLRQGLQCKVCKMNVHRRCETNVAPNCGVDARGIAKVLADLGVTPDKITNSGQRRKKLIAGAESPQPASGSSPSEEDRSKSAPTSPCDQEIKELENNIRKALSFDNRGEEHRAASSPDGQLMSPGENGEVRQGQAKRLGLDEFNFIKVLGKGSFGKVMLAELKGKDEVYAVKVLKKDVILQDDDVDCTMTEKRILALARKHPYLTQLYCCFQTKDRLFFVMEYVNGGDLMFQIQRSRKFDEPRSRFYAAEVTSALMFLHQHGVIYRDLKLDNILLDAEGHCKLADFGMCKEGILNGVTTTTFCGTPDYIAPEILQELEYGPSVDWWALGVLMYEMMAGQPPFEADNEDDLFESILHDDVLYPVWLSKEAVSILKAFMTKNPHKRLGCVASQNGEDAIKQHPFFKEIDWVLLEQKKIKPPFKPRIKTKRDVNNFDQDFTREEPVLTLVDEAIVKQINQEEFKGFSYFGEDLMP
Experimental: Kinase assays. CP612 was assayed against His-AVI–tagged human PKCε (1 nM) produced in Sf9 cells, and ROCK1 (Carna Biosciences; 5 nM) using the Lance-FRET kinase assay system (PerkinElmer Revvity). Other human recombinant PKCs (SignalChem Biotech) were assayed in triplicate at the following concentrations: PKCβII 1.6 nM, PKCγ 500 pM, PKCδ 5 nM, PKCθ 500 pM, and PKCζ 500 pM. PKCs were incubated in a 15 μL reaction volume with kinase buffer (20 mM Tris-HCL [pH 7.4], 10 mM MgCl2, 0.25 mM EGTA, 0.1 mg/mL BSA, and 0.15% Triton X-100), 50 nM ULight-labeled CREBtide […] (PerkinElmer, TRF0107, Revvity), and test compound. Reactions were initiated by adding 2.5 μM ATP at 27°C and were terminated after 60 minutes with 10 μL of 2.5× Stop Solution/Detection Mix containing 20 mM EDTA and 4 nM LANCE Ultra Europium anti–phospho-[…] (Ala25Ser) peptide antibody (PerkinElmer, TRF0200, Revvity). After incubation at 27°C for another 60 minutes, phosphorylation was detected using a FlexStation 3 Microplate Reader (Molecular Devices) in LANCE TR-FRET mode (excitation = 340 nm, emission = 665 nm) and expressed as relative fluorescence units (RFU). The percentage of inhibition was calculated as: (signal without test compound − signal with test compound)/(signal without test compound − signal without ATP) × 100. The Z’ factor for this assay ranged between 0.72 and 0.86.
Kinase assays used 11-point concentration-response curves and results were analyzed by nonlinear regression using Prism 9 (GraphPad Software) to determine IC50 values. Other analyses were performed on Prism 9 and Statistica (Tibco Software). Scores for pain threshold, conditioned place preference, and self-administration were analyzed by ANOVA using the following factors. […] We used a Tukey’s test for post hoc comparisons across groups and Dunnett’s test for post hoc comparisons with own pain thresholds at baseline values in the pain studies. Somatic withdrawal scores were analyzed with a Kruskal-Wallis test due to the nonparametric nature of those data, followed by nonparametric post hoc comparisons according to Siegel and Castellan ([40]). A P value less than 0.05 was considered significant.

## N[C@H](CNC(=O)C1(c2ccc(Cl)cc2)CCCC1)c1ccc(C(=O)Nc2ccncc2)cc1 [CP612]
PKCγ
  Inhibition of conventional PKCγ: weakly inhibited
[1]
  logD at 3 h: 1.5 ± 0.75
  logD: 1.504
PKCε; 30 nM CP612, read-out: Inhibition of novel PKCs (PKCε)
  inhibition at 0.03 µM: > 50%
PKCε; Figure 1B
  Relative potency within the nPKC subfamily: most potent
PKCε; Figure 1B PKC isozyme panel, read-out: IC50 PKCε
  IC50: 2.03 nM
PKCε; mean of all runs (count 42 CP612; 38 CIDD-0072424), 2.5 μM ATP, read-out: IC50 (nM) [Enzyme: PKCε], mean
  IC50: 1.9 ± 0.4 nM
PKCε; mean of ratios of all runs
  ROCK1/PKCε ratio, mean: 54.8
